# Residues, ends and D or L forms follow the SMILES beside them.
# Biological target: T1, calmodulin (CaM) (Homo sapiens, UniProt P0DP23)
# T1 construct: made in house
# Assay: Steady-state fluorescence anisotropy (FA) binding assay, peptide titrated with CaM
# Conditions: carboxyfluorescein-labelled peptide titrated with CaM, 25 mM Tris-HCl pH 7.5, 250 mM NaCl, 200 µM CaCl2, 25 °C, value (SD), anisotropy measured six times per concentration, read-out: KD of peptide/CaM complex, CaM/Ca2+ KD (SD)
# Protocol: First, we studied whether M4nt_WT and M4ct_WT are able to bind CaM and S100A1 at all. The carboxyfluorescein-labelled M4nt_WT and M4ct_WT peptides were titrated with increasing amounts of CaM or S100A1, and FA was measured for each point of titration. The FA increased due to a slower rotational diffusion of the formed complexes, and the fraction bound (Fb) of M4nt_WT and M4ct_WT could be calculated (Figure 2A, Figure 3A, Figure 4A, Figure 5A). Since the specific interactions of M4nt_WT and M4ct_WT with CaM/S100A1 were calcium-dependent, all samples were measured in the presence of 200-μM CaCl2. The fluorescence lifetimes τi of all peptides and their complexes (and all the following characterised peptides/complexes) were constant during all the experiments, with the values close to 3 ns. […] Overall, the FA results indicated the high affinity of M4nt_WT and M4ct_WT peptides to CaM and S100A1. Both M4nt_WT and M4ct_WT peptides thus seemed to represent potential binding epitopes on TRPM4.
# The experiments were performed on a K2 spectrofluorometer (ISS, Inc., Champaign, IL, USA) at 25 °C in a cuvette with a 2-mm path length. […] Fluorescence was excited at 490 nm, and polarised emission components III and I⊥, required for the construction of the emission anisotropy, were acquired and averaged quasi-simultaneously at 525 nm by repetitive switching of the emission polariser. […] The anisotropy values r were calculated from the fluorescence intensities in the parallel (III) and perpendicular (I⊥) directions according to the relationship r = (III − GI⊥)/(III + 2GI⊥), where G is a factor correcting for different transmittance of the detection channel for the two measured polarisations (III and I⊥). The G factor was determined in a separate experiment. The measurements were repeated six times for each ligand concentration; the mean anisotropy value was calculated and used for further analysis. […] The Q was evaluated for every binding experiment from the ratio of the fluorescence lifetimes of the bound to the free M4nt, M4ct or PIP2: Q = τbound/τfree. […]
row,Kd,Structure (SMILES)
1,27.2 µM,CC(C)C[C@H](NC(=O)[C@@H]1CCCN1C(=O)[C@H](CS)NC(=O)[C@H](CCCNC(=N)N)NC(=O)[C@H](CCCNC(=N)N)NC(=O)[C@H](CC(C)C)NC(=O)[C@H](CC(C)C)NC(=O)[C@H](CC(C)C)NC(=O)[C@H](CCCNC(=N)N)NC(=O)[C@H](C)NC(=O)[C@H](C)NC(=O)[C@H](CCCNC(=N)N)NC(=O)[C@@H](NC(=O)[C@H](CCC(=O)O)NC(=O)[C@H](CO)NC(=O)[C@H](CO)NC(=O)[C@H](C)NC(=O)[C@H](Cc1ccc(O)cc1)NC(=O)[C@H](CS)NC(=O)[C@H](CCC(=O)O)NC(=O)CNC(=O)[C@@H](N)Cc1ccccc1)C(C)C)C(=O)O [M4nt_R632A] (H-FGECYASSEVRAARLLLRRCPL-OH)
2,80 µM,CC(C)C[C@H](NC(=O)[C@@H]1CCCN1C(=O)[C@H](CS)NC(=O)[C@H](C)NC(=O)[C@H](C)NC(=O)[C@H](CC(C)C)NC(=O)[C@H](CC(C)C)NC(=O)[C@H](CC(C)C)NC(=O)[C@H](C)NC(=O)[C@H](C)NC(=O)[C@H](C)NC(=O)[C@H](CCCNC(=N)N)NC(=O)[C@@H](NC(=O)[C@H](CCC(=O)O)NC(=O)[C@H](CO)NC(=O)[C@H](CO)NC(=O)[C@H](CCCNC(=N)N)NC(=O)[C@H](Cc1ccc(O)cc1)NC(=O)[C@H](CS)NC(=O)[C@H](CCC(=O)O)NC(=O)CNC(=O)[C@@H](N)Cc1ccccc1)C(C)C)C(=O)O [M4nt_R640A/R644A/R645A] (H-FGECYRSSEVRAAALLLAACPL-OH)
3,17 µM,CC(C)C[C@H](NC(=O)[C@@H]1CCCN1C(=O)[C@H](CS)NC(=O)[C@H](CCCNC(=N)N)NC(=O)[C@H](CCCNC(=N)N)NC(=O)[C@H](CC(C)C)NC(=O)[C@H](CC(C)C)NC(=O)[C@H](CC(C)C)NC(=O)[C@H](C)NC(=O)[C@H](C)NC(=O)[C@H](C)NC(=O)[C@H](CCCNC(=N)N)NC(=O)[C@@H](NC(=O)[C@H](CCC(=O)O)NC(=O)[C@H](CO)NC(=O)[C@H](CO)NC(=O)[C@H](CCCNC(=N)N)NC(=O)[C@H](Cc1ccc(O)cc1)NC(=O)[C@H](CS)NC(=O)[C@H](CCC(=O)O)NC(=O)CNC(=O)[C@@H](N)Cc1ccccc1)C(C)C)C(=O)O [M4nt_R640A] (H-FGECYRSSEVRAAALLLRRCPL-OH)

# Reference: article PMC7352223, “Mapping of CaM, S100A1 and PIP2-Binding Epitopes in the Intracellular N- and C-Termini of TRPM4” (International Journal of Molecular Sciences, 2020)
